Reference: paper PMC3191909 (Journal of biomolecular screening, 2009)
Like-named read-outs stand apart in the source and are kept apart here.

Columns and labels:
[1] = biological target: (UniProt Z9ZW91H0F0); assay: [3H]epibatidine radioligand competition SPA, Bt AChBP; format: binding, Bolinus truncates
[2] = biological target: T1, AChBP (Ac) (Aplysia californica, UniProt Q8WSF8); assay: biochemical; format: binding
[3] = biological target: T1, AChBP (Ac); assay: [3H]epibatidine radioligand competition SPA, Ac AChBP; format: binding
[4] = biological target: α-cobratoxin (Naja kaouthia, UniProt P01391); parameters: species or system mice; settings: mouse, in vivo, iv
Sequence of α-cobratoxin (P01391 whole entry, looked up): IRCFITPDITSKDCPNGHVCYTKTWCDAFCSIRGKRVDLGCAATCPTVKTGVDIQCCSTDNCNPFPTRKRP

[5] = biological target: T2, AChBP (Ls) (Lymnaea stagnalis, UniProt P58154); format: binding; settings: read-out: Kd, [3H]Epibatidine
T2 sequence (P58154 20-229): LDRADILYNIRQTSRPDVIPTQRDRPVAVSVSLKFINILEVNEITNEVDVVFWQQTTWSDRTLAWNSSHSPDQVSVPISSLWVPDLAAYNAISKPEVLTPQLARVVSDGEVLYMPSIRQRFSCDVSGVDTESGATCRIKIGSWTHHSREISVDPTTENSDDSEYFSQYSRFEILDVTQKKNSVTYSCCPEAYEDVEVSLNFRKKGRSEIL

[6] = biological target: T2, AChBP (Ls); format: binding; settings: read-out: Kd, [125I]α-Bungarotoxin

Sequence of (UniProt Z9ZW91H0F0) (Z9ZW91H0F0 1-203): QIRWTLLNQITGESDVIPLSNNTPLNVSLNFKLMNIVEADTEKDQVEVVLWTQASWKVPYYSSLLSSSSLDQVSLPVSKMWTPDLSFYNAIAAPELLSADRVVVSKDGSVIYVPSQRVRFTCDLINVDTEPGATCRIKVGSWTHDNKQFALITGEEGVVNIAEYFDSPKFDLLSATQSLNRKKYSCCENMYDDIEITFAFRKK

SMILES	Kd [5] [nM]	Kd [6] [nM]	other results
COc1cc2c3cc1Oc1cc(ccc1O)C[C@@H]1c4c(cc(OC)c(O)c4Oc4ccc(cc4)C[C@@H]3N(C)CC2)CC[N+]1(C)C [NSC36387, d-tubocurarine, reference compound]	–	–	Kd [1]: 37.5 nM
c1ccc2c(CN3CCN(Cc4c[nH]c5ccccc45)CC3)c[nH]c2c1 [NSC42258]	–	–	Kd [2]: 2910 nM; Kd [3]: 1150 nM; effect on survival time of mice (in words) [4]: can prolong the survival time
COc1cc2c(cc1OC)C13CCN4CC5=CCOC(CC(=O)O)C(C5CC41)C3N2 (centres unmarked) [NSC121865]	112	75.9	–
N#Cc1ccc(/C=C/C(=O)O)cc1 [NSC134754]	793	404	–
